Some test systems named below: KM12 colon; SNB-75 CNS; DU-145 prostate; MOLT-4 leukemia; SN12C renal; HOP-62 NSCLC; T-47D breast; COLO 205 colon; SK-MEL-2 melanoma; HOP-92 NSCLC.
What all share (assay): growth of human tumour cells (NCI), 48 h

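Exposure lasted 48 hours, with cells grown in 96-well plates and compounds tested at five concentrations. GI50: concentration for 50% inhibition of growth. TGI: total growth inhibition.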

For the compound `COc1ccc(-n2nc(C)c3c(Nc4ccc(NC(=O)Nc5cccc(C(F)(F)F)c5)cc4)ncnc32)cc1`, the GI50 in the test on KM12 colon was 1.63 µM; in the test on SNB-75 CNS, 0.87 µM; in the test on DU-145 prostate, 1.97 µM; with MOLT-4 leukemia, 2.01 µM; in the test on SN12C renal it was 1.79 µM; with HOP-62 NSCLC, 1.73 µM. Further, the GI50 was 1.64 µM in the test with T-47D breast, 1.65 µM in the test on COLO 205 colon, 2.04 µM in the test on SK-MEL-2 melanoma and 1.59 µM in the test with HOP-92 NSCLC. Moreover, the TGI in the test with KM12 colon turned out to be 3.76 µM; in the test with SNB-75 CNS it was 3.03 µM; in the test on DU-145 prostate, 4.54 µM; in the test on MOLT-4 leukemia, 6.16 µM; with SN12C renal, 3.86 µM; in the test with HOP-62 NSCLC it was 3.45 µM. For the same compound, the TGI with T-47D breast turned out to be 4.84 µM; with COLO 205 colon, 3.49 µM; in the test with SK-MEL-2 melanoma, 4.01 µM; in the test with HOP-92 NSCLC it was 3.31 µM.
For `C=C1C(=O)OC2CC1C(OC(=O)/C=C/c1ccccc1)C/C(C)=C/CC/C(C)=C/CCC2(C)O` (stereo not given), the TGI with KM12 colon is 3.41 µM; in the test with SNB-75 CNS it was 2.87 µM; in the test with DU-145 prostate, 2.77 µM; with MOLT-4 leukemia it was above 39.8 µM; with SN12C renal it was 3.04 µM; with HOP-62 NSCLC it was 3.23 µM. Further, the TGI is 18.4 µM with T-47D breast, above 19.9 µM in the test on COLO 205 colon, 2.85 µM in the test with SK-MEL-2 melanoma and 4.03 µM with HOP-92 NSCLC.
Regarding `N#CC1=C(N)NC(=O)C(C#N)C12Nc1ccccc1S2` (stereo not given), the GI50 in the test on KM12 colon is 82 µM; with SNB-75 CNS, above 100 µM; in the test on DU-145 prostate, above 100 µM; with MOLT-4 leukemia, 95.8 µM; in the test with SN12C renal, above 100 µM; in the test on HOP-62 NSCLC it was above 100 µM. Also, the GI50 in the test on T-47D breast is above 100 µM; with COLO 205 colon, 89.9 µM; with SK-MEL-2 melanoma, 40.7 µM; in the test with HOP-92 NSCLC it was 74 µM. Also, the TGI in the test with KM12 colon, in the test with SNB-75 CNS, in the test with DU-145 prostate, in the test with MOLT-4 leukemia, in the test with SN12C renal and in the test on HOP-62 NSCLC was above 100 µM throughout. Besides, the TGI in the test with T-47D breast, in the test with COLO 205 colon, with SK-MEL-2 melanoma and in the test with HOP-92 NSCLC was above 100 µM throughout.
Turning to `O=C(O)c1cccc([As]=[As]c2cccc(C(=O)O)c2)c1` (stereo not given), the TGI in the test on KM12 colon is above 100 µM; with SNB-75 CNS, above 100 µM; in the test with DU-145 prostate, above 100 µM; in the test with MOLT-4 leukemia, 95.1 µM; in the test on SN12C renal, above 100 µM; with HOP-62 NSCLC, above 100 µM. Moreover, the TGI in the test on T-47D breast is above 100 µM; in the test with COLO 205 colon it was above 100 µM; in the test with SK-MEL-2 melanoma it was 55.6 µM; in the test on HOP-92 NSCLC it was 37.4 µM.
With `CCN(Cc1cc(Cl)cc(C)c1O)Cc1c(O)ccc2ccccc12`, the TGI worked out at 33 µM with KM12 colon; 24.1 µM in the test with SNB-75 CNS; 34.7 µM in the test on DU-145 prostate; 28 µM in the test with MOLT-4 leukemia; 37 µM in the test on SN12C renal; 26.4 µM in the test on HOP-62 NSCLC. Further, the TGI stood at 35.8 µM in the test with T-47D breast, 42 µM in the test on COLO 205 colon, 32.7 µM in the test on SK-MEL-2 melanoma and 26.2 µM in the test on HOP-92 NSCLC.
As for `O=C(c1ccc(Cl)cc1Cl)N1CCN(C(=O)c2ccc(Cl)cc2Cl)C1=S`, the GI50 was 15.3 µM with KM12 colon; 22.3 µM in the test with SNB-75 CNS; 30.6 µM with DU-145 prostate; 20.5 µM in the test on MOLT-4 leukemia; 18.1 µM in the test with SN12C renal; 23.1 µM in the test with HOP-62 NSCLC. The GI50 was 19.5 µM in the test with T-47D breast, 21 µM in the test on COLO 205 colon, 18.4 µM in the test with SK-MEL-2 melanoma and 7.83 µM with HOP-92 NSCLC. The TGI in the test on KM12 colon amounted to 29.4 µM; in the test on SNB-75 CNS it was 61.7 µM; in the test on DU-145 prostate, 98.9 µM; in the test on MOLT-4 leukemia, 43.5 µM; with SN12C renal, 34.4 µM; in the test on HOP-62 NSCLC it was 66.5 µM. The TGI in the test on T-47D breast turned out to be 62.6 µM; in the test with COLO 205 colon, 37.7 µM; in the test on SK-MEL-2 melanoma, 36.2 µM; in the test on HOP-92 NSCLC, 28.5 µM.
For `CC(=O)CC[N+](C)(C)C`, the TGI was above 81.5 µM with KM12 colon; 70.3 µM in the test with SNB-75 CNS; above 79 µM with DU-145 prostate; 24.7 µM with MOLT-4 leukemia; 53.6 µM in the test on SN12C renal; above 100 µM in the test on HOP-62 NSCLC. In addition, the TGI in the test with T-47D breast is 52.7 µM; in the test on COLO 205 colon, 17.5 µM; in the test on SK-MEL-2 melanoma, 64.4 µM; with HOP-92 NSCLC it was 22.7 µM.
As to `Nc1c(C(=O)c2cccc(-c3cccnc3)c2)cnn1-c1ccc(F)cc1`, the GI50 with KM12 colon is above 25 µM; in the test on SNB-75 CNS, above 12.6 µM; in the test on DU-145 prostate, above 25 µM; in the test with MOLT-4 leukemia it was above 25 µM; in the test on SN12C renal it was above 25 µM; with HOP-62 NSCLC it was above 17.3 µM. For the same compound, the GI50 in the test on T-47D breast is above 25 µM; in the test with COLO 205 colon it was above 25 µM; in the test on SK-MEL-2 melanoma it was above 25 µM; in the test on HOP-92 NSCLC, above 8.11 µM. Further, the TGI with KM12 colon, in the test with SNB-75 CNS, with DU-145 prostate, in the test on MOLT-4 leukemia, with SN12C renal and in the test with HOP-62 NSCLC was above 25 µM in each case. In addition, the TGI with T-47D breast, with COLO 205 colon, in the test on SK-MEL-2 melanoma and in the test with HOP-92 NSCLC was above 25 µM each time.
As for `COC(=O)CNC(=O)C(=O)c1c(O)c(O)c(C(C)C)c2cc(C)c(-c3c(C)cc4c(C(C)C)c(O)c(O)c(C(=O)C(=O)NCC(=O)OC)c4c3O)c(O)c12`, the GI50 in the test on KM12 colon is 1.39 µM; in the test on SNB-75 CNS it was 1.61 µM; with DU-145 prostate, 1.99 µM; in the test on MOLT-4 leukemia, 1.36 µM; in the test with SN12C renal, 1.97 µM; in the test on HOP-62 NSCLC it was 2.41 µM. Also, the GI50 is 5.09 µM in the test on T-47D breast, 1.28 µM with COLO 205 colon, 0.832 µM in the test with SK-MEL-2 melanoma and 1.38 µM in the test with HOP-92 NSCLC. The TGI is 7.29 µM in the test on KM12 colon; 8.5 µM with SNB-75 CNS; 7.91 µM with DU-145 prostate; 16 µM with MOLT-4 leukemia; 8.13 µM with SN12C renal; 9.61 µM in the test on HOP-62 NSCLC. In addition, the TGI in the test on T-47D breast stood at 40.9 µM; in the test with COLO 205 colon, 3.16 µM; in the test on SK-MEL-2 melanoma it was 2.13 µM; with HOP-92 NSCLC, 3.81 µM.

For the origin of these results see PubChem BioAssay (NCI).
